Test [1] relates to chronic nephritis rats. The test is described as follows: chronic nephritis rat model (passive Heymann nephritis). As to conditions: dexamethasone 0.1 mg/kg, gavage; for IL-1α / IL-1β / IL-6 / IL-10 / Scr: serum. It is filed as in vivo, SD rats. As to the method: (§1) The solid dispersions are prepared through a solvent method, comprising steps of: respectively precisely weighing LM49, PVPK30 and tween80 with a weight ratio of 1:5:1, and A8, PVPK30 and tween80 with a weight ratio of 1:4:1; dissolving with appropriate absolute ethyl alcohol, continuously stirring, and uniformly mixing; placing on the water bath at 60° C., evaporating and removing the absolute ethyl alcohol, and obtaining a viscous material; placing in the freezer at −20° C., and freezing for 2 hours; taking out from the freezer, then placing in the vacuum drying oven, and drying for 24 hours; after becoming embrittlement, smashing and sieving with a sieve of 80 meshes, and then placing in the dryer for storage.
The passive Heymann nephritis is the classic model for researching the human chronic nephrosis. Thus, the present invention researches the effects of the two disclosed compounds on preventing the chronic nephritis with the model.
Ninety male SD rats having a weight of 180-220 g are selected, wherein: ten rats are selected as a blank group, and the remaining rats are used for preparing the rat Heymann nephritis models according to the method (disclosed in Journal of Proteomics, 2012, 75(3): pages 3866-3876). The successively established model rats are randomly divided into the model group, the positive control group (dexamethasone with a concentration of 0.1 mg/kg), the LM49 solid dispersion low-dose group (with the drug concentration of 3 mg/kg), the LM49 solid dispersion medium-dose group (with the drug concentration of 9 mg/kg), the LM49 solid dispersion high-dose group (with the drug concentration of 27 mg/kg), the A8 solid dispersion low-dose group (with the drug concentration of 3 mg/kg), the A8 solid dispersion medium-dose group (with the drug concentration of 9 mg/kg), and the A8 solid dispersion high-dose group (with the drug concentration of 27 mg/kg).
The rats of the blank group and the model group are administrated with the normal saline of same volume, and the rats of the other groups are respectively administrated with the drugs of the corresponding dose, by gavage, every day from model establishment for four weeks.
The blood of the rats of all groups is drawn at the second week and the fourth week from model establishment and 24-hour urine thereof is collected, for respectively measuring the contents of the urinary albumin, serum creatinine (Scr) in the serum, BUN, IL-1α, IL-1β, IL-6 and IL-10.
The data is represented in mean±(standard deviation) (x±s) and processed with the SPSS 19.0 statistical software. The one-way analysis of variance (ANOVA) is adopted for comparison among the groups, and then the LSD-Test is adopted for pairwise comparison. The differences of P<0.05 and P<0.01 are statistically significant.

Test [2] has as its system Escherichia coli ATCC25922 standard strain. Description: urinary and renal bacterial culture of acute pyelonephritis rats. It is filed as in vivo, SD rats. As to conditions: norfloxacin 66.7 mg/kg, gavage, 10 days. Here is the method: Ninety male SD rats having a weight of 180-220 g are selected, wherein: ten rats are selected as a sham-operated group (only being processed with ligation, without injecting with Escherichia coli), and the remaining rats are injected with Escherichia coli ATCC25922 standard strain having a concentration of 10^8/ml according to the method (disclosed in the Chinese Journal of Laboratory Animal Science, 1998, 8(1): pages 31-34) for preparing the acute pyelonephritis model rats.
After three days, urine of the rats is collected for bacterial culture, and the growth situation of the bacteria is observed. If the result is positive, the model rats are successively established; the unqualified rats are excluded, and the operation is made again for complementing the rats. The successively established model rats are randomly divided into the model group, the norfloxacin group (66.7 mg/kg), the LM49 solid dispersion low-dose group (with the drug concentration of 3 mg/kg), the LM49 solid dispersion medium-dose group (with the drug concentration of 9 mg/kg), the LM49 solid dispersion high-dose group (with the drug concentration of 27 mg/kg), the A8 solid dispersion low-dose group (with the drug concentration of 3 mg/kg), the A8 solid dispersion medium-dose group (with the drug concentration of 9 mg/kg), and the A8 solid dispersion high-dose group (with the drug concentration of 27 mg/kg).
The rats of the sham-operated group and the model group are administrated with the normal saline of same volume by gavage, and the rats of the other groups are respectively administrated with the drugs of the corresponding dose, once a day for consecutive ten days.
After finishing administration, urine of the rats of all groups is collected (for observing the bacterial growth situation). The abdominal aorta blood of the rats is drawn (for measuring the blood routine, CD4/CD8, urine creatinine and serum creatinine in the serum; and for measuring contents of IL-1α, IL-1β, IL-6, IL-10 and MCP-1 in the serum with the ELISA method). Two kidneys of each rat are cut (wherein a part is homogenated for bacterial culture, and the other part is used for observing the pathomorphology change).

In test [3] the test system is DN rats. The test is described as follows: type II diabetic nephropathy (DN) rat model (high-sugar high-fat diet + streptozocin). It is filed as in vivo, SD (Sprague Dawley) rats. As to conditions: DN rats, captopril 15 mg/kg, gavage, 6 weeks. As to the method:
as §1
The healthy adult male SD rats (having a weight of 180-220 g) are fed with the high-sugar and high-fat diet for 4 weeks; the rats are fasting overnight; and streptozocin (STZ) of 40 mg/kg is intraperitoneally injected into the rats. The rats of normal control group are injected with the sodium citrate buffer of same volume; 72 hours later, the rats are fasting for 12 hours. […] During the administration period, the successfully established model rats are still fed with the high-sugar and high-fat diet, while the rats of the normal control group are fed with the normal diet.
After administration for 6 weeks, 6-hour urine of the rats is collected with the metabolism cage.
The rats are fasting overnight and anesthetized intraperitoneally, then the abdominal aorta blood thereof is drawn for measuring the related indexes. The two kidneys of each rat are washed with the normal saline; weights of the kidneys are recorded; and the kidney coefficient (weights of two kidneys/body weight) is calculated. The renal tissues (comprising the glomerulus and renal tubules) at the same part of the left kidney are cut lengthwise and immersed in the 10% neutral formalin for pathomorphology analysis, and the other parts of the left kidney are used for biochemical index measurement; the right kidney is used for mechanism research and stored in the freezer at −80° C.
After successfully establishing the model rats, expect the normal control group (ten rats), the remaining rats are randomly divided into eight groups, wherein each group has twelve rats. The eight groups are respectively the model group, the LM49 solid dispersion low-dose group (with the drug concentration of 3 mg/kg), the LM49 solid dispersion medium-dose group (with the drug concentration of 9 mg/kg), the LM49 solid dispersion high-dose group (with the drug concentration of 27 mg/kg), the A8 solid dispersion low-dose group (with the drug concentration of 3 mg/kg), the A8 solid dispersion medium-dose group (with the drug concentration of 9 mg/kg), the A8 solid dispersion high-dose group (with the drug concentration of 27 mg/kg), and the captopril control group (with the drug concentration of 15 mg/kg).
Administration Way: By Gavage.
The rats of the normal control group and the model group are administrated with the normal saline of 1.0 ml/100 g; the rats of the positive control group, the LM49 solid dispersion high-dose, medium-dose and low-dose groups and the A8 solid dispersion high-dose, medium-dose and low-dose groups are respectively administrated with the drugs of different concentrations, and the administration volume is 1.0 ml/100 g.
The solid dispersions are dissolved by the normal saline; and the rats of the positive control group are administrated with the 0.5% CMC-Na (sodium carboxymethyl cellulose) suspension.
The rats are administrated seven days a week, for totally six weeks.
The IBM SPSS Statistics 20 software is used for data processing, and the data is represented in x±s. The one-way analysis of variance (ANOVA) is adopted for comparison among the groups. According to the homogeneity test results of variance, if the variance is equal, the LSD (least significant difference) test is adopted; if the variance is unequal, the Dunnett's T3 test is adopted. […]

Regarding `C[C@@H]1C[C@H]2[C@@H]3CCC4=CC(=O)C=C[C@]4(C)[C@@]3(F)[C@@H](O)C[C@]2(C)[C@@]1(O)C(=O)CO` [Dexamethasone, dexamethasone, reference compound], in test [1] (Fourth week), the “24-hour urinary protein quantitation” value is given as 19.99 ± 3.5^ΔΔ mg/24 h, the IL-1α is listed as 9.33 ± 4.22^Δ pg/ml, the IL-1β is on record as 163.44 ± 59.31^Δ pg/ml and the IL-6 is given as 61.31 ± 25.66^ΔΔ pg/ml. In addition, in test [1] (Fourth week), the IL-10 is listed as 29.44 ± 59.31^ΔΔ pg/ml and the Scr is 44.32 ± 13.3 µmol/L. Moreover, in test [1] (Second week), the “24-hour urinary protein quantitation” value is given as 20.87 ± 4.4^Δ mg/24 h, the IL-1α is 10.47 ± 2.45^Δ pg/ml, the IL-1β is listed as 184.55 ± 57.22^Δ pg/ml and the IL-6 is on record as 87.01 ± 31.44^ΔΔ pg/ml. Moreover, in test [1] (Second week), the IL-10 was 51.09 ± 7.55 pg/mL and the Scr stood at 46.22 ± 10.4 µmol/L.
In the case of `CCn1cc(C(=O)O)c(=O)c2cc(F)c(N3CCNCC3)cc21` [Norfloxacin, norfloxacin, reference compound], the “Renal bacterial culture score” value in test [2] (mean score, scale 1-4 of Table 10 (colony number <10, >10, >100, >1000)) was 1.2 ± 0.42^ΔΔ. For the same molecule, in test [2] (urine culture), the “Urinary bacterial A value (OD600 nm)” value is on record as 0.254 ± 0.082^ΔΔ.
Consider `C[C@H](CS)C(=O)N1CCC[C@H]1C(=O)O` [captopril, reference compound], for which, in test [3], the BUN is 10.91 ± 1.15 mmol/L, the CREA came out at 52.15 ± 3.40 µmol/L and the Glycated hemoglobin is on record as 8.88 ± 0.55%. Further, in test [3] (6-hour urine), the Urinary protein is on record as 5.93 ± 1.59^□□ mg/6 h and the “mALB (microalbumin in urine)” value is on record as 76.69 ± 7.69^□□ μg/6 h. For the same molecule, in test [3] (renal tissues), the ICAM-1 is on record as 246.36 ± 49.25 pg/mgprog, the IL-1β is reported as 102.32 ± 22.70 pg/mgprog, the IL-6 is 107.50 ± 20.22^□□ pg/mgprog and the MDA was determined as 1.04 ± 0.24 nmol/mgprog. Also, in test [3] (renal tissues), the NF-κB is given as 174.49 ± 45.87^□□ pg/mgprog, the SOD is 4.42 ± 0.94 U/mgprog, the T-AOC was 1.48 ± 0.41 U/mgprog and the TGF-β1 is 36.72 ± 11.42^□□ pg/mgprot. For the same molecule, in test [3] (renal tissues), the TNF-α is 292.79 ± 81.62^□ pg/mgprog and the VCAM-1 came out at 23.79 ± 3.50 pg/mgprog. In test [3] (serum), the “Glucose (GLU)” value is given as 16.66 ± 4.34^□□ mmol/L, the HDL-C is 1.19 ± 0.35 mmol/L, the LDL-C is reported as 1.80 ± 0.27^□□ mmol/L and the TC was 3.06 ± 0.43^□□ mmol/L. Further, in test [3] (serum), the TG is on record as 0.37 ± 0.09^□□ mmol/L and the UA is on record as 49.00 ± 3.24^□□ μmol/L. Moreover, the Kidney coefficient in test [3] (weights of two kidneys/body weight) came to 1.02 ± 0.06%.

The values are drawn from patent US20190133968A1, “Applications of benzophenones in preparation of drug” (SHANXI MEDICAL UNIVERSITY, priority 2016, published 2019).
